Six compounds from ChEMBL document CHEMBL3763113, “Discovery of spirocyclic proline tryptophan hydroxylase-1 inhibitors” (Bioorg Med Chem Lett, 2016) can be followed below.

Series [1] concerns the target T1, Tryptophan 5-hydroxylase 1 (Homo sapiens, UniProt P17752).
T1 sequence (P17752 whole entry): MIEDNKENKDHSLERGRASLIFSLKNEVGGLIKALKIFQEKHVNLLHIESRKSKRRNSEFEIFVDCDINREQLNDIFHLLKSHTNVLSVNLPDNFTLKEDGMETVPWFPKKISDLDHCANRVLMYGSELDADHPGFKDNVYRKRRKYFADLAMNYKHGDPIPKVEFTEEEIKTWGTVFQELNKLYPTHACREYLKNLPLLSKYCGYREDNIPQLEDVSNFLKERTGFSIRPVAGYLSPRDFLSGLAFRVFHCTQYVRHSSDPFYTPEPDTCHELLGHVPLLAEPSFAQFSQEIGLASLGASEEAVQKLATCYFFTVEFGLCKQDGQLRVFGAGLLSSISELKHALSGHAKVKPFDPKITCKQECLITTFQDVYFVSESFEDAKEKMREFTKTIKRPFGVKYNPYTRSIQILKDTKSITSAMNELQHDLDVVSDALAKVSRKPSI
Description: Inhibition of TPH1 (unknown origin)

In series [2] the test system is Rattus norvegicus. As to the kind of experiment: Decrease in 5-HT levels in rat platelet rich plasma at 30 mg/kg, po qd measured after 16 hrs relative to control. Set-up: scale not given: the % may be the effect or the level left. Format: functional.
Series [3] has as its system Rattus norvegicus. As to the kind of experiment: Decrease in 5-HT levels in rat intestinal mucosa at 10 mg/kg, po qd measured after 16 hrs relative to control. Also noted: scale not given: the % may be the effect or the level left. Format: functional.
Series [4] is described as follows: Volume of distribution at steady state in rat at 1 mg/kg, iv. Format: ADME, organism-based. The settings on record: in vivo, read-out: Vdss.
Series [5] deals with Mus musculus. As to the kind of experiment: Decrease in 5-HT levels in mouse at 10 mg/kg, po administered as single dose for 16 hrs. Format: functional.
Series [6] deals with Rattus norvegicus. As to the kind of experiment: Half life in rat assessed as (S)-8-(2-amino-6-((R)-1-(4-chloro-2-(3-methyl-1H-pyrazol-1-yl)phenyl)-2,2,2-trifluoroethoxy)pyrimidin-4-yl)-2,8-diazaspiro[4.5]decane-3-carboxylic acid at 1 mg/kg, iv. It is filed as ADME, organism-based. The following applies: in vivo.
Series [7] is described as follows: Clearance in rat at 25 mg/kg, po and 1 mg/kg, iv. Format: ADME, organism-based. The following applies: in vivo.
Series [8] has as its system Rattus norvegicus. As to the kind of experiment: AUC(0 to last) in rat assessed as (S)-8-(2-amino-6-((R)-1-(4-chloro-2-(3-methyl-1H-pyrazol-1-yl)phenyl)-2,2,2-trifluoroethoxy)pyrimidin-4-yl)-2,8-diazaspiro[4.5]decane-3-carboxylic acid at 25 mg/kg, po. It is filed as ADME, organism-based. Also noted: dose 25 mg/kg, route oral, time 0 - last. The following applies: in vivo.

Series [9] deals with Rattus norvegicus. As to the kind of experiment: Decrease in 5-HT levels in rat platelet rich plasma at 30 mg/kg, po bid measured after 16 hrs relative to control. Also noted: scale not given: the % may be the effect or the level left. It is filed as functional.
Series [10] deals with Rattus norvegicus. As to the kind of experiment: Decrease in 5-HT levels in rat intestinal mucosa at 30 mg/kg, po bid measured after 16 hrs relative to control. Format: functional. Also noted: scale not given: the % may be the effect or the level left.
The nature of series [11]: AUC(0 to last) in rat at 25 mg/kg, po. It is filed as ADME, organism-based. Also noted: dose 25 mg/kg, time 0 - last, route oral. The settings on record: in vivo.
Series [12] relates to Rattus norvegicus. As to the kind of experiment: Decrease in 5-HT levels in rat platelet rich plasma at 10 mg/kg, po qd measured after 16 hrs relative to control. It is filed as functional. Set-up: scale not given: the % may be the effect or the level left.
Series [13] can be described thus: Cmax in rat at 25 mg/kg, po. It is filed as ADME, organism-based. Set-up: dose 25 mg/kg, route oral. The settings on record: in vivo.
For series [14], the system named is Rattus norvegicus. As to the kind of experiment: Cmax in rat assessed as (S)-8-(2-amino-6-((R)-1-(4-chloro-2-(3-methyl-1H-pyrazol-1-yl)phenyl)-2,2,2-trifluoroethoxy)pyrimidin-4-yl)-2,8-diazaspiro[4.5]decane-3-carboxylic acid at 25 mg/kg, po. The following applies: in vivo. It is filed as ADME, organism-based. Set-up: dose 25 mg/kg, route oral.
Series [15] relates to Rattus norvegicus. As to the kind of experiment: Decrease in 5-HT levels in rat intestinal mucosa at 30 mg/kg, po qd measured after 16 hrs relative to control. It is filed as functional. Set-up: scale not given: the % may be the effect or the level left.
Series [16] in a line: Half life in rat at 1 mg/kg, iv. It is filed as ADME, organism-based. The settings on record: in vivo.
The test system of series [17] is Mus musculus. As to the kind of experiment: Decrease in 5-HT levels in mouse at 50 mg/kg, po administered as single dose for 16 hrs. It is filed as functional.

Each structure is given as a SMILES string.

In turn, `Cc1ccn(-c2cc(Cl)ccc2[C@@H](Oc2cnc(N3CCC4(CC3)CNC(C(=O)O)C4)cn2)C(F)(F)F)n1` (stereo partly specified) showed an IC50 in series [1] of 3.42 µM.

Compound `Cc1ccn(-c2cc(Cl)ccc2[C@@H](Oc2cnnc(N3CCC4(CC3)CNC(C(=O)O)C4)c2)C(F)(F)F)n1` (stereo partly specified) had an IC50 in [1] of 5.93 µM.

Take `CCOC(=O)[C@@H]1CC2(CCN(c3cc(O[C@H](c4ccc(Cl)cc4-n4ccc(C)n4)C(F)(F)F)nc(N)n3)CC2)CN1`: the Activity in the series on Rattus norvegicus [2] worked out at 71%; with Rattus norvegicus [3], 76%; in the series with Rattus norvegicus [9], 72%; in the series on Rattus norvegicus [10], 38%; in the series with Rattus norvegicus [12], 76%; in the series on Rattus norvegicus [15], 62%. The Vd in series [4] came out at 3.1 L/kg. For the same compound, in the series with Mus musculus [5], the inhibition in vivo at 10 mg/kg turned out to be 32%. Moreover, the t1/2 in the series on Rattus norvegicus [6] worked out at 271 min. In addition, the clearance in [7] is 178 mL/min/kg. In the series on Rattus norvegicus [8], the AUClast worked out at 2924 ng·h/mL. The AUC(0-t) in series [11] was determined as 140 ng·h/mL. For the same compound, the Cmax worked out at 249 ng/mL in series [13] and 2253 ng/mL in the series with Rattus norvegicus [14]. The half-life in series [16] was 24 min. The inhibition in vivo at 50 mg/kg in the series with Mus musculus [17] is 56%.

With `Cc1ccn(-c2cc(Cl)ccc2[C@@H](Oc2nc(N)nc(N3CCC4(CC3)CNC(C(=O)O)C4)n2)C(F)(F)F)n1` (stereo partly specified), the IC50 in series [1] was 2.27 µM.

`Cc1ccn(-c2cc(Cl)ccc2[C@@H](Oc2cncc(N3CCC4(CC3)CNC(C(=O)O)C4)n2)C(F)(F)F)n1` (stereo partly specified): it took 20 µM to reach half-maximal inhibition in series [1] (IC50).

`Cc1ccn(-c2cc(Cl)ccc2[C@@H](Oc2ccnc(N3CCC4(CC3)CNC(C(=O)O)C4)c2)C(F)(F)F)n1` (stereo partly specified) came in with an IC50 in series [1] of 0.211 µM.
